Tested on: skin conditions (boil, folliculitis, ingrown hair)
Test: Empirical studies of active ingredients in topical compositions
Type: in vivo, human

Which “relieving pain of papule-like boil or ingrown hair conditions” value (1% by weight in composition) does the source give for `CCCCOc1ccc(OCCCN2CCOCC2)cc1` [Pramoxine] here?
The value was “effective”.

How did the “treating contemplated skin conditions” value (antibiotic ingredients blended into compositions) turn out when bacitracin zinc was run?
The value was “effective”.
